Measured values reported in US8846704B2, “Thiopyrimidine-based compounds and uses thereof” (YM Biosciences Austraila Pty Ltd, priority 2007, dated 2014).

What was measured:
human JAK2 = target: T1, human JAK2 (Homo sapiens, UniProt O60674); test: Alphascreen tyrosine kinase enzyme assay, JAK2 kinase domain; type: biochemical; conditions: read-out: JAK2 IC50_nM
T1 construct: The kinase domain of human JAK2 was amplified; GST (N); made in house; host or cells: Sf9 insect cells (baculovirus)
Summary of the method: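 JAK2 kinase domain expressed in baculovirus/Sf9 and glutathione-affinity purified. Compounds (final […]) pre-incubated 20 min with enzyme in 10 mM HEPES pH 7.5, MgCl2, NaCl, vanadate, 0.1% Tween 20.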

human JAK3 = target: T2, human JAK3 (Homo sapiens, UniProt P52333); test: Alphascreen tyrosine kinase enzyme assay, JAK3 kinase domain; type: biochemical; conditions: read-out: JAK3 IC50_nM
T2 construct: The kinase domain of human JAK3 was amplified; GST (N); made in house; host or cells: Sf9 insect cells (baculovirus)
T2 sequence (P52333 822-1111 limits assumed): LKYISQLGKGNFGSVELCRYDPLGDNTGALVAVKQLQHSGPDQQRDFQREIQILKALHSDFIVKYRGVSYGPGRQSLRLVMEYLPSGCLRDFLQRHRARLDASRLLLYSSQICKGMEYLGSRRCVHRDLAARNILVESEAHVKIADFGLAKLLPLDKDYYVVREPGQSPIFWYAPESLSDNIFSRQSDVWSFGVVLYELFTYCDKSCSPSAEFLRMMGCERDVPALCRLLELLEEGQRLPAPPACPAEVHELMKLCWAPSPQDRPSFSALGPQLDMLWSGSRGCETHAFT
Summary of the method: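 GST-affinity-purified human JAK3 kinase domain (baculovirus/Sf9) was pre-incubated 20 min with compound ([…]) in HEPES pH 7.5 buffer with MgCl2, vanadate and Tween 20. Biotinylated peptide substrate ([…]) and ATP were then added; phosphotyrosine was detected by AlphaScreen PY100 acceptor and streptavidin donor beads after 2–3 h.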

BaF3 wild-type cells = test: Cellular screening, BaF3 wild-type cells, Alamar Blue; type: cell-based; conditions: Mus musculus, 40 hr, read-out: BAF3wt IC50_nM
Summary of the method: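 Compounds, screened from dilution plates at 20 μM, were added as 10× final stocks to cells grown in DMEM/10% FCS/10% WEHI 3B conditioned medium. Cells were seeded at 1.1× final (50,000–200,000 cells/mL) and incubated 40 hr at 37° C, 5% CO2. Viability was read at 544 nm after a further 4–6 hours with Alamar Blue.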

T1 sequence (O60674 849-1124 limits assumed): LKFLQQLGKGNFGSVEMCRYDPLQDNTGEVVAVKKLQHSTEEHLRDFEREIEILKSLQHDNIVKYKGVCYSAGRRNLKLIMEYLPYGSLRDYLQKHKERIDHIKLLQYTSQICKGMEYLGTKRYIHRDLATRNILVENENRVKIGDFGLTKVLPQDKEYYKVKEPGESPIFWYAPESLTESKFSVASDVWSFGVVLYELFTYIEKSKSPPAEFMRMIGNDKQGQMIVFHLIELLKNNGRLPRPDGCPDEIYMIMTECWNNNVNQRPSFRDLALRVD

Structure (SMILES)	IC50 (human JAK2) [nM]	IC50 (human JAK3) [nM]	IC50 (BaF3 wild-type cells) [nM]
CCC(=O)Nc1ccc(Sc2nc(Nc3ccc(N4CCOCC4)cc3)ncc2Cl)cc1 [Compound 347, N-(4-(5-chloro-2-(4-morpholinophenylao)pyrimidin-4-ylthio)phenyl)propionamide]	> 1000	< 100	> 20000
C=CC(=O)Nc1ccc(Sc2ccnc(Nc3cccc(S(N)(=O)=O)c3)n2)cc1 [Compound 364, N-(4-(2-(3-sulfamoylphenylao)pyrimidin-4-ylthio)phenyl)acrylamide]	> 1000	< 100	< 20000
C=CC(=O)Nc1ccc(Sc2nc(Nc3cccc(O)c3)ncc2C)cc1 [Compound 281, N-(4-(2-(3-hydroxyphenylao)-5-methylpyrimidin-4-ylthio)phenyl)acrylamide]	> 1000	< 100	< 20000
CSc1nc(Nc2ccc(N3CCOCC3)cc2)ncc1C [Compound 176, 5-methyl-4-(methylthio)-N-(4-morpholinophenyl)pyrimidin-2-ae]	< 1000	< 1000	< 5000
C=CC(=O)Nc1cccc(Sc2ccnc(Nc3ccc(OC)cc3)n2)c1 [Compound 120, N-(3-(2-(4-methoxyphenylao)pyrimidin-4-ylthio)phenyl)acrylamide]	> 1000	< 100	> 20000
Cc1cnc(Nc2ccc(N3CCOCC3)cc2)nc1Sc1ccc(NC(=O)CCC(=O)O)cc1 [Compound 383, 4-(4-(5-methyl-2-(4-morpholinophenylao)pyrimidin-4-ylthio)phenylao)-4-oxobutanoic acid]	< 500	< 100	< 20000
C=CC(=O)Nc1ccc(Sc2ccnc(Nc3ccc(N4CCOCC4)cc3)n2)c(Cl)c1C [Compound 161, N-(3-chloro-2-methyl-4-(2-(4-morpholinophenylao)pyrimidin-4-ylthio)phenyl)acrylamide]	> 1000	< 100	> 20000
C=CC(=O)Nc1ccc(Sc2ccnc(Nc3ccc(OC)c(O)c3)n2)cc1 [Compound 97]	> 1000	< 100	< 20000
N#CCC(=O)Nc1ccc(Sc2ccnc(Nc3ccc(N4CCC(N5CCCC5)CC4)cc3)n2)cc1 [Compound 88, 2-cyano-N-(4-(2-(4-(4-(pyrrolidin-1-yl)piperidin-1-yl)phenylao)pyrimidin-4-ylthio)phenyl)acetamide]	> 1000	< 500	< 5000
C=CC(=O)Nc1ccc(Sc2ccnc(Nc3ccc(F)c(C#N)c3)n2)cc1 [Compound 354, N-(4-(2-(3-cyano-4-fluorophenylao)pyrimidin-4-ylthio)phenyl)acrylamide]	> 1000	< 100	< 20000
C=CC(=O)Nc1ccc(Sc2ccnc(Nc3ccccc3)n2)cc1 [Compound 350, N-(4-(2-(phenylao)pyrimidin-4-ylthio)phenyl)acrylamide]	> 1000	< 100	> 20000
C=CC(=O)Nc1ccc(Sc2nc(Nc3ccc(N4CCOCC4)cc3)ncc2Cl)cc1 [Compound 315, N-(4-(5-chloro-2-(4-morpholinophenylao)pyrimidin-4-ylthio)phenyl)acrylmide]	> 1000	< 100	> 20000
COc1cc(Nc2nccc(Sc3ccc(NCC#N)cc3)n2)cc(OC)c1OC [Compound 52, 2-(4-(2-(3,4,5-trimethoxyphenylao)pyrimidin-4-ylthio)phenylao)acetonitrile]	> 1000		
C=CC(=O)Nc1ccc(Sc2ccnc(Nc3cccc(S(=O)(=O)N4CCN(C)CC4)c3)n2)cc1 [Compound 365, N-(4-(2-(3-(4-methylpiperazin-1-ylsulfonyl)phenylao)pyrimidin-4-ylthio)phenyl)acrylamide]	> 1000	< 100	< 20000
C=CC(=O)Nc1ccc(Sc2ccnc(Nc3ccccc3O)n2)cc1 [Compound 279, N-(4-(2-(2-hydroxyphenylao)pyrimidin-4-ylthio)phenyl)acrylamide]	> 1000	< 100	< 20000
Nc1ccc(Sc2nc(Nc3ccc(N4CCOCC4)cc3)ncc2I)cc1 [Compound 309, 4-(4-aophenylthio)-5-iodo-N-(4-morpholinophenyl)pyrimidin-2-ae]	> 1000	< 500	< 5000
Cc1cnc(Nc2ccc(N3CCOCC3)cc2)nc1Sc1ccc(N)cc1 [Compound 126, 4-(4-aophenylthio)-5-methyl-N-(4-morpholinophenyl)pyrimidin-2-ae]	< 500	< 100	> 20000

Structure (SMILES)	IC50 (human JAK2) [nM]	IC50 (human JAK3) [nM]	IC50 (BaF3 wild-type cells) [nM]
C=CC(=O)Nc1ccc(Sc2nc(Nc3ccc(N4CCOCC4)cc3)ncc2C)c(Cl)c1C [Compound 171, N-(3-chloro-2-methyl-4-(5-methyl-2-(4-morpholinophenylao)pyrimidin-4-ylthio)phenyl)acrylamide]	> 1000	< 100	> 20000
C=CC(=O)Nc1ccc(Sc2ccnc(Nc3ccc(N4CCC(N5CCCC5)CC4)cc3)n2)cc1 [Compound 87, N-(4-(2-(4-(4-(pyrrolidin-1-yl)piperidin-1-yl)phenylao)pyrimidin-4-ylthio)phenyl)acrylamide]	> 1000	< 100	< 5000
COC(=O)COCC(=O)Nc1ccc(Sc2nc(Nc3ccc(N4CCOCC4)cc3)ncc2C)cc1 [Compound 189, methyl 2-(2-(4-(5-methyl-2-(4-morpholinophenylao)pyrimidin-4-ylthio)phenylao)-2-oxoethoxy)acetate]	> 1000	< 500	< 20000
C=CC(=O)Nc1ccc(Sc2ccnc(Nc3cccc(Cl)c3)n2)cc1 [Compound 348, N-(4-(2-(3-chlorophenylao)pyrimidin-4-ylthio)phenyl)acrylamide]	> 1000	< 100	
C=CC(=O)Nc1ccc(Sc2nc(Nc3ccc(N4CCOCC4)cc3)ncc2-c2ccccc2)cc1 [Compound 307, N-(4-(2-(4-morpholinophenylao)-5-phenylpyrimidin-4-ylthio)phenyl)acrylamide]	> 1000	< 100	> 20000
C=CC(=O)Nc1ccc(Sc2nc(Nc3cccc(OCCCO)c3)ncc2C)cc1 [Compound 301, N-(4-(2-(3-(3-hydroxypropoxy)phenylao)-5-methylpyrimidin-4-ylthio)phenyl)acrylamide]	> 1000	< 100	< 20000
C=CC(=O)N(C)c1ccc(Sc2ccnc(Nc3ccc(N4CCOCC4)cc3)n2)cc1 [Compound 91, N-methyl-N-(4-(2-(4-morpholinophenylao)pyrimidin-4-ylthio)phenyl)acrylamide]	> 1000	< 100	> 20000
C=CC(=O)Nc1ccc(Sc2ccnc(Nc3ccc(S(N)(=O)=O)cc3)n2)cc1 [Compound 352, N-(4-(2-(4-sulfamoylphenylao)pyrimidin-4-ylthio)phenyl)acrylamide]	> 1000	< 100	> 20000
C=CC(=O)Nc1ccc(Sc2ccnc(Nc3ccc(Cl)cc3)n2)cc1 [Compound 353, N-(4-(2-(4-chlorophenylao)pyrimidin-4-ylthio)phenyl)acrylamide]	> 1000	< 100	> 20000
C=CC(=O)Nc1ccc(Sc2nc(Nc3ccc(N4CCOCC4)cc3)ncc2I)cc1 [Compound 313, N-(4-(5-iodo-2-(4-morpholinophenylao)pyrimidin-4-ylthio)phenyl)acrylamide]	> 1000	< 100	> 20000
C=CC(=O)Nc1ccc(Sc2nc(Nc3cccc(OC(F)(F)F)c3)ncc2C)cc1 [Compound 289, N-(4-(5-methyl-2-(3-(trifluoromethoxy)phenylao)pyrimidin-4-ylthio)phenyl)acrylamide]	> 1000	< 100	> 20000
C=CC(=O)Nc1ccc(Sc2ccnc(Nc3ccc(S(=O)(=O)NCCC(C)C)cc3)n2)cc1 [Compound 371, N-(4-(2-(4-(N-isopentylsulfamoyl)phenylao)pyrimidin-4-ylthio)phenyl)acrylamide]	> 1000	< 100	< 20000
C=CC(=O)Nc1ccc(Sc2nc(Nc3ccccc3O)ncc2C)cc1 [Compound 287, N-(4-(2-(2-hydroxyphenylao)-5-methylpyrimidin-4-ylthio)phenyl)acrylamide]	> 1000	< 100	
C=CC(=O)Nc1ccc(Sc2ccnc(Nc3ccc(N4CCS(=O)(=O)CC4)cc3)n2)cc1 [Compound 99, N-{4-[(2-{[4-(1,1-dioxo-1λ^6,4-thiomorpholin-4-yl)phenyl]ao}pyrimidin-4-yl)sulfanyl]phenyl}prop-2-enamide]	> 1000	< 100	
C=CC(=O)Nc1ccc(Sc2ccnc(Nc3ccc(C(=O)OC)cc3)n2)cc1 [Compound 357, methyl 4-(4-(4-acrylamidophenylthio)pyrimidin-2-ylao)benzoate]	> 1000	< 100	
CC(=O)Nc1ccc(Sc2nc(Nc3ccc(N4CCOCC4)cc3)ncc2C)cc1 [Compound 135, N-(4-(5-methyl-2-(4-morpholinophenylao)pyrimidin-4-ylthio)phenyl)acetamide]	> 1000	< 500	
